Laboratory results taken from US10335364B2, “Composition for topical application comprising glycerol and tannins” (priority 2013, dated 2019).

Key:
[1] = system: human multilayered epidermis; assay: Glycerol film retention on in vitro human multilayered epidermis (MTT cell viability); assay type: cell-based
Description: In the absence of any specific in vivo model to study the duration of the film retention by a biological surface, an in vitro model of human multilayered epidermis was used to evaluate the effects of the addition of non-cytotoxic concentrations of different PCD-rich plant extracts, either singly or in different associations, on glycerol film retention. Human epidermis was grown on a permeable polycarbonate filter (1 cm diameter) and was kept on a sponge soaked with culture medium, its outer surface remaining in contact with air, as is the case in vivo. Through capillary action, the culture medium diffuses through the polycarbonate filter and supplies nourishment to the epidermal cells to keep those cells alive.
Inserting one or two additional polycarbonate filters increases the distance between the culture medium and the cells; the amount of available medium, which reaches the cells, then decreases, and in absence of nutrients and hydration, the cells die. […] The percentage of live cells is proportional to the duration of retention of the glycerol film by the epidermal surface.
Various glycerol preparations containing test products (mainly PCD-rich plant extracts), at concentrations varying between 0.1 and 5.0%.
Quantity of Test Product Applied Per Epidermis: 20 μl
Glycerol preparations were directly applied on the epidermis as thin layer with the help of a pipette (n=6 per concentration): the epidermis was placed on two filters and the test product was applied on the epidermis surface. The filters were kept on a sponge, which was inserted in a petri dish containing an appropriate quantity of medium to nourish the cells. […]
The cell viability was scored as follows: • Score 4: 100% cells (compared to the controls) with intense blue color. • 3: Approximately 75% live cells with dark blue color. • 2: Approximately 50% live cells with medium blue color. • 1: Approximately 25% live cells with light blue color. • 0: No live cells, whitish epidermis color. […]

diabetic ulcers = settings: human, in vivo
Description: Samples of wound fluid (100 μl) were collected at hourly intervals over a 6 h period, and the quantity of glycerol was measured.

[2] = system: human epidermis (normal human epithelial cells); assay: In vitro osmotic/hydrating properties on dehydrated human epidermis culture; assay type: cell-based; settings: 20 μl, day 7, filmogen glycerol = preparation n° 2 in Example 5 (Orosol)
Text: In the absence of in vivo models to mimic the osmotic exudation of hypotonic liquid from the oral or vaginal mucosa, a cell culture model of human epidermis was used which contains normal human epithelial cells grown on a polycarbonate filter in an air/liquid phase. Under optimal conditions, a multilayered cell culture, equivalent to the mucosal surface is obtained on a polycarbonate support. This support is placed on a sponge in contact with a defined amount of culture medium. The medium diffuses into the sponge and the filter, and supplies nutrients as well as hydration to the cells. Under these conditions, the cell culture can be kept alive for at least a week.
To create an experimental model of mucosa dryness, we inserted one or two extra filters between the cells and the sponge, thereby reducing the amount of liquid medium available to the cells. In absence of hydration, cells die, and the cell mortality can be measured with a vital dye MU. Cell mortality is proportional to the culture surface's dryness. […]
The aim of this study was to evaluate the hydrating properties of filmogen glycerol compared to regular glycerol. […] Each epidermis was washed by stirring the culture in culture medium for 20 seconds on days 1, 3 and 5, and cell viability was measured on day 7 using MU staining.

rat dorsal skin lesions = assay: In vivo rat wound healing; settings: 0.2 ml per lesion for 7 consecutive days, filmogen glycerol as per the example N° 6
Description: The rat dorsal skin was shaved and 3 circular lesions, […] in diameter and depth, were made to the hypodermis with a dermatome. 0.2 ml of each test product was applied on each lesion for 7 consecutive days. Lesion diameter was measured every day and mean values were compared.

[3] = system: free virus particles present on the surface of labial herpes lesions; assay: Clinical study 3: free virus particles on labial herpes lesions (Tzank test); assay type: in vivo, human (patients); settings: labial lesion smears, twice daily application
Description: Labial lesion smears were collected and mean virus concentration was measured by quantifying the number of multinucleated virus-infected giant cells in each lesion using Tzank test, and the mean amount of free virus particles was determined in both groups.

[4] = system: nasal sinus infection (rhinosinusitis); assay: Clinical study 4: rhinosinusitis; assay type: in vivo, human (patients)
Description: A 21-day controlled clinical trial of G-PCD compared to glycerol alone in patients suffering from acute symptoms of nasal sinus infection was performed.
The aim of this study was to evaluate the sinus-opening efficacy of G-PCD solution (32% glycerol, 1% plant PCDs in water) as per the example N° 5, compared to glycerol alone (32% glycerol in water). Among 127 patients suffering from acute and chronic sinusitis 109 were selected for the study. 58 patients were treated with G-PCD and 51 with glycerol. Products were administered as sprays (3 at each treatment application), 2-3 times per day for a maximum period of 21 days.
The parameters studied were: 1. Effect on nasal congestion and runny nose; 2. Effect on pain upon pressure around the nasal sinus surface; 3. Overall condition of the patient with respect to sinus infection; and 4. The influence on antibiotic therapy. […] Only 21% patients in the G-PCD group required antibiotic therapy for an average 7.41 days compared to 40% in the glycerol group for a period of 10.5 days (FIG. 8)

[5] = Osmolality and osmotic pressure of glycerol and seawater; assay type: physicochemical; settings: pure glycerol
Text: An injured skin or mucosa acts as a semi-permeable membrane and allows osmosis to occur. The flow of solvents across a semi-permeable membrane constitutes the osmotic flow or osmosis. The pressure required to achieve osmotic equilibrium is known as osmotic pressure. The higher the concentration of a […], the more osmotic pressure it exerts. Fresh water is considered isotonic with a density of 1000 kg/m^3. […] Osmotic pressure exerted by glycerol is nearly 10 times higher compared to seawater. The solute concentration of glycerol is also much higher compared to seawater. It is the total solute concentration in a solution that determines the osmotic flow of liquid, as osmosis is driven by differences in solute/solvent concentrations that exist across a semi-permeable membrane. The total solute concentration can be determined through the osmolality of the solution. […] Therefore, glycerol could have been a product of choice for application on infected surfaces in order to generate osmotic outflow of hypotonic liquid and to clean the injury. Unfortunately, the exudating hypotonic liquid immediately dilutes the glycerol and drains it from the wound surface within a few minutes, limiting these cleaning effects.

[6] = seawater containing […] NaCl; pure glycerol; cited from earlier work
[7] = spray 2-3 times per day, glycerol = 32% glycerol in water

OCC(O)CO [glycerol]
cell survival % after 72 h ([1]; 20 μl on epidermis placed on two filters, 37° C., 5% CO2, 72 h, MTT): 23.85 (±4.8) % | higher cell survival compared to the positive controls ([1]; 72 h, positive controls without product 6.32%): 17.53% | cells die within 72 h ([1]; glycerol control, free of any PCD extract): 60-70% | glycerol eliminated from the wound within 1 hour (diabetic ulcers; 1 h): ~92% | glycerol eliminated from the wound within 2 hours (diabetic ulcers; 2 h): 100% | Mean score of cell survival after 1-week culture, partially dehydrated cultures ([2]; 1 extra filter): 62.3% | Mean score of cell survival after 1-week culture, severely dehydrated cultures ([2]; 2 extra filters): 43.15% | Mean lesion size (diameter/day/lesion during 7 days) (rat dorsal skin lesions): 2.95 cm^2 | mean amount of free virus particles, day 1 [3]: > 750 | mean amount of free virus particles, day 4 [3]: 635 (±17.51) | mean amount of free virus particles, day 7 [3]: 542 (±22.35.) | mean amount of free virus particles, day 14 [3]: 522 (±13.50) | patients requiring antibiotic therapy ([4]; 21-day trial): 40% | average duration of antibiotic therapy ([4]; patients who required antibiotics): 10.5 days | nasal congestion symptom change after 30 minutes [4, 7]: −20.40% | nasal congestion symptom change after 3 days [4, 7]: −19.09% | nasal congestion symptom change after 7 days [4, 7]: −30.25% | overall rhinosinusitis condition change after 30 minutes [4, 7]: −22.56% | overall rhinosinusitis condition change after 3 days [4, 7]: +3.52% | overall rhinosinusitis condition change after 7 days [4, 7]: −17.62% | sinus pain symptom change after 30 minutes [4, 7]: −1.69% | sinus pain symptom change after 3 days [4, 7]: −8.36% | sinus pain symptom change after 7 days [4, 7]: −53.36% | increase in intensity of runny nose ([4]; within 30 minutes of first product administration): 31.71% | osmotic activity compared to seawater [5]: ~18 times | osmolality (total solute/mol wt/kg) [6]: 10.86 mols/kg
